Data from US4914197A, “Novel phosphoric diesters” (Senju Pharmaceutical Co., Ltd., priority 1986, dated 1990).
Values joined by “and” are separate entries in the source; they are usually repeats but may differ in a detail not shown here. Equal entries are not always repeated.

How the values were obtained:
rabbits eye = assay: Topical antiinflammatory effect, anterior chamber paracentesis inflammation model of the rabbits eye; format: in vivo, female white rabbits; conditions: 0.1% ophthalmic solution; for % Inhibition: inhibition of increase in protein of secondary aqueous humor vs control; for Increase in protein: secondary minus primary aqueous humor (1.5 hours apart), 10 μl at 2, 1 and 0.5 hour before paracentesis, control 25.5
Description: The antiinflammatory effect of the compound according to the present invention was investigated in the anterior chamber paracentesis inflammation model of the rabbits eye.
Method: Using female white rabbits, a 0.1% ophthalmic solution of L-ascorbyl tocopheryl phosphate sodium and, as a control, physiological saline were instilled into the bilateral eyes of rabbits in volumes of 10 μl each at 2, 1 and 0.5 hour before peracentesis and using a 27-gauge needle about 200 μl of anterior chamber aqueous humor was collected from each eye (primary aqueous humor). Then, after an interval of 1.5 hours, the aqueous humor was collected again in the same manner (secondary aqueous humor). The protein content of each aqueous sample was determined by the method of Lowry and the increases in the amount of protein (protein content of secondary aqueous humor-protein content of primary aqueous humor) in the respective groups were compared to evaluate the antiinflammatory effect of each test substance.

[1] = test system: back skin of Hartly guinea pigs; assay: Inhibitory effect on ultraviolet-induced erythema; format: in vivo; parameters: key to Degree of erythema, After 1 hour, Right / Degree of erythema, After 1 hour, Left / Degree of erythema, After 2 hours, Right / Degree of erythema, After 2 hours, Left: 0: No erythema; 1: Slight erythema; 2: Erythema without a distinct margin; 3: Erythema with a distinct margin
Description: Method: The back hairs of Hartly guinea pigs were clipped with an electric clipper and shaved with an electric razor. Then, a cloth with two holes 11 mm in diameter and 4 cm apart was appliedto the back for positioning and a 1 (w/v) % aqueous solution of δ-EPC (adjusted to pH 6.0) and, as control, water were applied 3 times in 100 μl portions each at 1-hour intervals around the sites of said holes over an area 4 cm in diameter. One hour after the final application, said cloth with small holes was applied again and the exposed skin areas was irradiated with ultraviolet rays at 1700 luxes for 360 seconds. Then, after 1 and 2 hours, respectively, the back was grossly examined for erythema. […]
Erythema without a distinct margin
Erythema with a distinct margin

[2] = 1 (w/v) % aqueous solution pH 6.0, 3 x 100 μl, one animal per line, control 2, 2, 2, 2
[3] = 1 (w/v) % aqueous solution pH 6.0, 3 x 100 μl, one animal per line, control 2, 3, 2, 2

SMILES	% Inhibition (rabbits eye)	Increase in protein (rabbits eye)	Degree of erythema, After 1 hour, Left [1, 2]	Degree of erythema, After 2 hours, Left [1, 2]	Degree of erythema, After 1 hour, Right [1, 3]	Degree of erythema, After 2 hours, Right [1, 3]	antiinflammatory effect compared with the control group ([1]; UV-induced erythema, guinea pigs)
Cc1cc(OP(=O)(O)OC2=C(O)[C@@H]([C@@H](O)CO)OC2=O)cc2c1O[C@](C)(CCC[C@H](C)CCC[C@H](C)CCCC(C)C)CC2 [δ-EPC, L-Ascorbyl D-δ-tocopheryl phosphate sodium]	40.0%	15.3	0 and 1	0 and 1	1	1	significant antiinflammatory effect
Cc1cc(OP(=O)(O)OC2=C(O)[C@@H]([C@@H](O)CO)OC2=O)c(C)c2c1OC(C)(CCCC(C)CCCC(C)CCCC(C)C)CC2 (mixture of isomers) [β-EPC, L-Ascorbyl DL-β-tocopheryl phosphate sodium]	37.3%	16.0					
C[C@@H]1C[C@H]2[C@@H]3CCC4=CC(=O)C=C[C@]4(C)[C@@]3(F)[C@@H](O)C[C@]2(C)[C@@]1(O)C(=O)CO [DEX, Dexamethasone, reference compound]	18.4%	20.8					
Cc1c(OP(=O)(O)OC2=C(O)[C@@H]([C@@H](O)CO)OC2=O)cc2c(c1C)OC(C)(CCCC(C)CCCC(C)CCCC(C)C)CC2 (mixture of isomers) [γ-EPC, L-Ascorbyl DL-γ-tocopheryl phosphate sodium]	36.5%	16.2					
